Reference: US20090163476A1, “N-Phenyl Benzamide Derivatives as Sirtuin Modulators” (Sirtris Pharmaceuticals, Inc., priority 2005, published 2009)

Biological target: T1, SIRT1 (Homo sapiens, UniProt Q96EB6)
T1 sequence (Q96EB6 1-747): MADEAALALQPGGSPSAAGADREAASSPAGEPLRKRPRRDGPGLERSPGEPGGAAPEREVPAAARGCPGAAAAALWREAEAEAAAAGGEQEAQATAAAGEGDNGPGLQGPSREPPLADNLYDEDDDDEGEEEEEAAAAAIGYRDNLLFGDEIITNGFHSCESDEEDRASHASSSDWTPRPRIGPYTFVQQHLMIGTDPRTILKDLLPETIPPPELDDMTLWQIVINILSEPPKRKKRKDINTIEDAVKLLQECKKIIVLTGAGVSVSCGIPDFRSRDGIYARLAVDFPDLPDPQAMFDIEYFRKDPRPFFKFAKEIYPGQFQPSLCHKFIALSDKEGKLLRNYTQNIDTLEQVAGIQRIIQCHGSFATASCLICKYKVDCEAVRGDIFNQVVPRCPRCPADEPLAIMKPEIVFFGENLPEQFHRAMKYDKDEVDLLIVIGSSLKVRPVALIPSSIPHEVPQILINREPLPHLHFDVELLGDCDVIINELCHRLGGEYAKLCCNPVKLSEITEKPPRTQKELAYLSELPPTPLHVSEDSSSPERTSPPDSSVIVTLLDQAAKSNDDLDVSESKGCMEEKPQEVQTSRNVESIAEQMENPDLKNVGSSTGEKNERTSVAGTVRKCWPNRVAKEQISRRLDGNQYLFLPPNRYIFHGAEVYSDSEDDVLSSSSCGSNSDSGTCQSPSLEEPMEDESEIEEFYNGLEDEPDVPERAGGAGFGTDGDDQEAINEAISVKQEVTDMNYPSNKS
Assay: Mass spectrometry based assay of SIRT1 activity
Assay type: biochemical
Design: key to FOLD ACTIVATION MS: A: Fold activation >250%; B: Fold Activation <250%; C: no fold activation
Details: for EC50: activation of SIRT1, read-out: ED50 MS
Experimental: The mass spectrometry based assay utilizes a peptide having 20 amino acid residues as follows: […] The sequence of the peptide substrate is based on p53 with several modifications. […] Test compounds may be added to the reaction as described above. […] After the 25 minute incubation with SIRT1, 10 μL of 10% formic acid is added to stop the reaction. Reactions are sealed and frozen for later mass spec analysis. Determination of the mass of the substrate peptide allows for precise determination of the degree of acetylation (i.e. starting material) as compared to deacetylated peptide (product). […] This timepoint is the same as that used for test compounds and, within the linear range, the endpoint represents a change in velocity. For each of the above assays, SIRT1 protein was expressed and purified as follows. The SirT1 gene was cloned into a T7-promoter containing vector and transformed into BL21(DE3). The protein was expressed by induction with 1 mM IPTG as an N-terminal His-tag fusion protein at 18° C. overnight and harvested at 30,000×g. […] The protein was purified over a Ni-NTA column (Amersham) and fractions containing pure protein were pooled, concentrated and run over a sizing column (Sephadex S200 26/60 global). The peak containing soluble protein was collected and run on an Ion-exchange column (MonoQ). […] This protein was concentrated and dialyzed against dialysis buffer (20 mM Tris-HCl, 2 mM TCEP) overnight. The protein was aliquoted and frozen at −80° C. until further use.

In the case of `O=C(Nc1cccc(-c2nc3ncccc3o2)c1)c1cccc(OC(F)(F)F)c1` [Compound 50], the EC50 is reported as over 150 µM.
`COc1ccc(C(=O)Nc2cccc(-c3nc4ncccc4o3)c2)cc1` [Compound 54] showed an EC50 of over 150 µM.
`O=C(Nc1cccc(-c2nc3ncccc3o2)c1)c1ccccc1N1CCOCC1` [Compound 109] was tested, and the “FOLD ACTIVATION MS” value was “B (Fold Activation <250%)” and the EC50 was under 50 µM.
`COc1ccc(C(=O)Nc2cccc(-c3nc4ncccc4o3)c2)cc1Cl` [Compound 110] was tested, and the EC50 was 101 to 150 µM.
In the case of `CN(C)c1cccc(C(=O)Nc2cccc(-c3nc4cccnc4o3)c2)c1` [Compound 111], the “FOLD ACTIVATION MS” value is reported as “B (Fold Activation <250%)” and the EC50 is reported as under 50 µM.
`COc1ccc(C(=O)Nc2cccc(-c3nc4cccnc4o3)c2)cc1OC` [Compound 112] was tested, and the “FOLD ACTIVATION MS” value was “B (Fold Activation <250%)” and the EC50 was under 50 µM.
In the case of `CN(C)c1cccc(C(=O)Nc2cccc(-c3nc4ccncc4s3)c2)c1` [Compound 113], the “FOLD ACTIVATION MS” value is reported as “B (Fold Activation <250%)” and the EC50 is reported as under 50 µM.
For `COc1ccc(C(=O)Nc2cccc(-c3nc4ccncc4s3)c2)cc1OC` [Compound 114], the “FOLD ACTIVATION MS” value was “A (Fold activation >250%)” and the EC50 was under 50 µM.
`COc1cc(C(=O)Nc2cccc(-c3nc4ccncc4s3)c2)cc(OC)c1OC` [Compound 115] was tested, and the “FOLD ACTIVATION MS” value was “A (Fold activation >250%)” and the EC50 was under 50 µM.
Compound `COc1ccc(C(=O)Nc2cccc(-c3cnc4ccccc4n3)c2)cc1OC` [Compound 116] has an EC50 of 101 to 150 µM.
In the case of `COc1ccc(C(=O)Nc2cccc(-c3nc4cc(C)ccc4[nH]3)c2)cc1OC` [Compound 117], the “FOLD ACTIVATION MS” value is reported as “A (Fold activation >250%)” and the EC50 is reported as under 50 µM.
With `COc1cc(C(=O)Nc2cccc(-c3cn4ccsc4n3)c2)cc(OC)c1OC` [Compound 118] the “FOLD ACTIVATION MS” value was “A (Fold activation >250%)” and the EC50 was under 50 µM.
For `COc1cccc(OC)c1C(=O)Nc1cccc(-c2nc3ccccc3o2)c1` [Compound 119], the “FOLD ACTIVATION MS” value was “B (Fold Activation <250%)” and the EC50 was under 50 µM.
With `COc1cccc(C(=O)Nc2cccc(-c3nc4cc(Cl)cc(Cl)c4o3)c2)c1` [Compound 121] the “FOLD ACTIVATION MS” value was “C” and the EC50 was over 150 µM.
`COc1ccc(C(=O)Nc2cccc(-c3nc4cc(C(C)C)ccc4o3)c2)cc1OC` [Compound 122] showed an EC50 of 101 to 150 µM.
For `COc1ccc(C(=O)Nc2cccc(-c3nc4ccccc4s3)c2)c(OC)c1` [Compound 124], the “FOLD ACTIVATION MS” value was “B (Fold Activation <250%)” and the EC50 was under 50 µM.
`COc1cc(C(=O)Nc2cccc(-c3nc4ccccc4c(=O)o3)c2)cc(OC)c1OC` [Compound 125] was tested, and the “FOLD ACTIVATION MS” value was “B (Fold Activation <250%)” and the EC50 was 51 to 100 µM.
In the case of `COc1cccc(OC)c1C(=O)Nc1cccc(-c2nc3ccccc3[nH]2)c1` [Compound 126], the “FOLD ACTIVATION MS” value is reported as “B (Fold Activation <250%)” and the EC50 is reported as under 50 µM.
In the case of `COc1cc(C(=O)Nc2cccc(-c3nc4ccc(C)cc4o3)c2)cc(OC)c1OC` [Compound 127], the “FOLD ACTIVATION MS” value is reported as “A (Fold activation >250%)” and the EC50 is reported as under 50 µM.
In the case of `COc1ccc(C(=O)Nc2cccc(-c3cn4ccc(C)cc4n3)c2)c(OC)c1` [Compound 128], the “FOLD ACTIVATION MS” value is reported as “B (Fold Activation <250%)” and the EC50 is reported as under 50 µM.
With `COc1cc(C(=O)Nc2cccc(-c3cn4ccc(C)cc4n3)c2)cc(OC)c1OC` [Compound 129] the “FOLD ACTIVATION MS” value was “A (Fold activation >250%)” and the EC50 was under 50 µM.
With `COc1ccc(C(=O)Nc2cccc(-c3cn4ccc(C)cc4n3)c2)cc1` [Compound 130] the “FOLD ACTIVATION MS” value was “B (Fold Activation <250%)” and the EC50 was under 50 µM.
For `COc1cc(C(=O)Nc2cccc(-c3cn4cccc(C)c4n3)c2)cc(OC)c1OC` [Compound 131], the “FOLD ACTIVATION MS” value was “A (Fold activation >250%)” and the EC50 was under 50 µM.
With `COc1ccccc1C(=O)Nc1cccc(-c2cn3ccsc3n2)c1` [Compound 132] the “FOLD ACTIVATION MS” value was “A (Fold activation >250%)” and the EC50 was under 50 µM.
With `COC(=O)c1cc(NC(=O)c2cc(OC)c(OC)c(OC)c2)cc(-c2nc3ccncc3s2)c1` [Compound 133, methyl 3-(thiazolo[5,4-c]pyridin-2-yl)-5-(3,4,5-trimethoxybenzamido)benzoate] the “FOLD ACTIVATION MS” value was “B (Fold Activation <250%)” and the EC50 was under 50 µM.
`COc1cc(C(=O)Nc2cc(C(=O)O)cc(-c3nc4ccncc4s3)c2)cc(OC)c1OC` [Compound 134, 3-(thiazolo[5,4-c]pyridin-2-yl)-5-(3,4,5-trimethoxybenzamido)benzoic acid] was tested, and the “FOLD ACTIVATION MS” value was “B (Fold Activation <250%)” and the EC50 was under 50 µM.
In the case of `COc1cc(C(=O)Nc2cc(CO)cc(-c3nc4ccncc4s3)c2)cc(OC)c1OC` [Compound 135], the “FOLD ACTIVATION MS” value is reported as “B (Fold Activation <250%)” and the EC50 is reported as under 50 µM.
`COc1ccc(C(=O)Nc2cc(C(=O)O)cc(-c3nc4ncccc4o3)c2)cc1OC` [Compound 137] gave an EC50 of over 150 µM.
`CN(C)c1cccc(C(=O)Nc2cc(C(=O)N3CCNCC3)cc(-c3nc4ncccc4o3)c2)c1` [Compound 138] was tested, and the “FOLD ACTIVATION MS” value was “B (Fold Activation <250%)” and the EC50 was under 50 µM.
`COc1ccc(C(=O)Nc2cc(C(=O)N3CCNCC3)cc(-c3nc4ncccc4o3)c2)c(OC)c1` [Compound 139] was tested, and the “FOLD ACTIVATION MS” value was “B (Fold Activation <250%)” and the EC50 was under 50 µM.
For `COc1ccc(C(=O)Nc2cc(C(=O)N3CCNCC3)cc(-c3nc4ncccc4o3)c2)cc1OC` [Compound 164], the “FOLD ACTIVATION MS” value was “B (Fold Activation <250%)” and the EC50 was under 50 µM.
